Results taken from US12187742B2 (XRAD Therapeutics, Inc., priority 2018, dated 2025).
Where a name gives a salt, the structure may show the parent alone.

Experiments:
ATM = ATM (Homo sapiens (Human), UniProt Q13315); assay: ATM in Cell Western Assay (pKAP1 in etoposide-treated MCF-7 cells); assay type: cell-based; details: MCF-7 cells, etoposide 100 μM, 1 hr, pKAP1 readout
How it was run: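 After paraformaldehyde fixation and Triton X-100 permeabilization, immunostained plates were read by infrared scanning (ODYSSEY CLx). Compound was given as 10 doses, 3-fold dilutions from a 1 μM final top concentration.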

DNA-PK = DNA-PK (Homo sapiens (Human), UniProt P78527); assay: DNA-PK Enzyme-Linked Immunosorbent Assay (phosphorylation of GST-p53 (1-101) peptide); assay type: biochemical; details: ELISA, ATP 20 μM
How it was run: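 Inhibition measured by 450 nm absorbance after HRP/TMB detection of phospho-Ser15 on immobilized GST-p53 (1-101). The kinase reaction used 0.1 μg/mL DNA-PK and 20 μM ATP, 1 h at 25 °C. Ten 3-fold compound dilutions, top final concentration 100 nM.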

Sequence of ATM (Q13315 whole entry): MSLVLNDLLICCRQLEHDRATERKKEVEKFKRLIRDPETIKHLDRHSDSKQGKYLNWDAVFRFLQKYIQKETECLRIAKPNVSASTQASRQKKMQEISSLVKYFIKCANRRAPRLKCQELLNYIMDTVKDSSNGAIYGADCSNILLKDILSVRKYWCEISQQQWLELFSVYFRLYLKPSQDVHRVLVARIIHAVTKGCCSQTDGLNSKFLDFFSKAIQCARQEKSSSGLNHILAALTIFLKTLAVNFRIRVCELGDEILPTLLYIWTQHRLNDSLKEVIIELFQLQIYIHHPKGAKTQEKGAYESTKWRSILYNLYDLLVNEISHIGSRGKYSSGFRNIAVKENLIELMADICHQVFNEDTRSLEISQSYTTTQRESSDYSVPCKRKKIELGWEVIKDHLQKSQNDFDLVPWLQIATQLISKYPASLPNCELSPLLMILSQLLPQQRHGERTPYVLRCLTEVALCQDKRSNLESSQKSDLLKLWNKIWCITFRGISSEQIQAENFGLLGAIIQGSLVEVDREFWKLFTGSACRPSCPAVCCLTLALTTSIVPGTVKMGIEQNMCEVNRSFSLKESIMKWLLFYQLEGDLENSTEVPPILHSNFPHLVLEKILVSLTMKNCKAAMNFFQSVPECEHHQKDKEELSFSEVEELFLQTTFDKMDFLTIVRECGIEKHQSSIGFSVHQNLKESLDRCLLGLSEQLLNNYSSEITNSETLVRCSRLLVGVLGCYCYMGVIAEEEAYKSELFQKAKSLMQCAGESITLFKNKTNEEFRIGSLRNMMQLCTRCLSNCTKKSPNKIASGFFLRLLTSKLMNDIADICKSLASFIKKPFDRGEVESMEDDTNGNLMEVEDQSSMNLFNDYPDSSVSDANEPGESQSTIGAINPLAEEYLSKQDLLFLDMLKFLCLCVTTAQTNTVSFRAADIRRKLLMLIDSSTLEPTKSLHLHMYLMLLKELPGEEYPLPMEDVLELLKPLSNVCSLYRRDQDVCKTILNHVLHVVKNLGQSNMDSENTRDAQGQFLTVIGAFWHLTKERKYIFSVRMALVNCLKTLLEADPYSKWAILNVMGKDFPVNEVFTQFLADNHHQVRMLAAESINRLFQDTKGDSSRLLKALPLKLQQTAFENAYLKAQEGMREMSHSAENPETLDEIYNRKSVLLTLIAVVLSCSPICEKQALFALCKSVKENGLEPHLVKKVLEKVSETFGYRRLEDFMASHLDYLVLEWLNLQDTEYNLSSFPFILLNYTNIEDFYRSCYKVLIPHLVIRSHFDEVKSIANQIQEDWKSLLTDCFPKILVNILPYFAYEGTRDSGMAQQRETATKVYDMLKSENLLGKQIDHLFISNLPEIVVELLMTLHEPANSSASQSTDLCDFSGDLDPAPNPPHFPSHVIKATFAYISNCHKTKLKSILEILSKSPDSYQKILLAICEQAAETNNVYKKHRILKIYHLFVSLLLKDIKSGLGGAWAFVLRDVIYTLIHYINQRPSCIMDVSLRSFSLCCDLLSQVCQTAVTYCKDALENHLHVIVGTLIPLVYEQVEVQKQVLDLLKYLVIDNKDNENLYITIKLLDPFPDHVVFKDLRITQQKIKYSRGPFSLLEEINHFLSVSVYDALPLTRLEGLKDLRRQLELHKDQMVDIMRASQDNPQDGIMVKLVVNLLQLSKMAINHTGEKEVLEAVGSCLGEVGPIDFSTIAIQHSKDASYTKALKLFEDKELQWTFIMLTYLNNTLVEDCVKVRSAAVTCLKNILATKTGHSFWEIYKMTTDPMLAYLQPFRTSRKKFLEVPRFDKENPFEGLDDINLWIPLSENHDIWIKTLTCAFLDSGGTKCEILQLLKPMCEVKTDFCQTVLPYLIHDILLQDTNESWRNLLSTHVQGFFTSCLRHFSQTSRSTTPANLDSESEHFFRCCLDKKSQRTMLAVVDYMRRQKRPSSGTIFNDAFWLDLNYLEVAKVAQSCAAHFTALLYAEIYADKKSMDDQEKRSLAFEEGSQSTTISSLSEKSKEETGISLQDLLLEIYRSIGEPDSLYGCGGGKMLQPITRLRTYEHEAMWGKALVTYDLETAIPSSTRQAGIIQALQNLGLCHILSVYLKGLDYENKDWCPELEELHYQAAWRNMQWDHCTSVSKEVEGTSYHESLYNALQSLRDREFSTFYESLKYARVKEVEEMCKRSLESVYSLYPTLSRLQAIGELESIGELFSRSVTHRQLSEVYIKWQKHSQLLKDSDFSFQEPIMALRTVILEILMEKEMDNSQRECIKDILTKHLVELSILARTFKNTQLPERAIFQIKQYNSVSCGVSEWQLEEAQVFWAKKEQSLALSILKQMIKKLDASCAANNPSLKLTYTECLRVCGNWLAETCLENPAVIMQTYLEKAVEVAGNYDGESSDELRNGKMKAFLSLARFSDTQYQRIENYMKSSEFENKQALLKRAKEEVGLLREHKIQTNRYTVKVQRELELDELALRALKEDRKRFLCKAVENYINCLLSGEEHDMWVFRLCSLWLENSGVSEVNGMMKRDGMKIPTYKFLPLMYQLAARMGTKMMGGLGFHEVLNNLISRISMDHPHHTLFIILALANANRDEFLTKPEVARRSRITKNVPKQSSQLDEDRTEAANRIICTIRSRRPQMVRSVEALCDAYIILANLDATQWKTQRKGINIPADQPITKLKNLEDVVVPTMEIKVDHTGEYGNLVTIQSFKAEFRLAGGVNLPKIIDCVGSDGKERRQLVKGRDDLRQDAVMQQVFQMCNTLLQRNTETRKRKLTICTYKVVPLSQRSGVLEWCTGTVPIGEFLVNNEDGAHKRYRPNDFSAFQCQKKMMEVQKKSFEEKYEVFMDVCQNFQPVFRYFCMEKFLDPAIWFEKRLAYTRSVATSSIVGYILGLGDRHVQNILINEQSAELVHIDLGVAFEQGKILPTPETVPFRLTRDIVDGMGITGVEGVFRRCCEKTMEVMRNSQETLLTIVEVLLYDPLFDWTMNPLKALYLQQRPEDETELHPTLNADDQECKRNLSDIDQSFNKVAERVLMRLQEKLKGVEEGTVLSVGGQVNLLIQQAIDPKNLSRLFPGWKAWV

IC50 (ATM)	IC50 (DNA-PK)	SMILES
1 to 100 nM	< 0.5 nM	CN(C)CCCOc1ncc(-c2ccc3ncc4c(c3c2)C2(CC2)C(=O)N4C)cc1NS(=O)(=O)c1ccc(OC(F)(F)F)cc1 [Example 121, N-(2-(3-(Dimethylamino)propoxy)-5-(3′-methyl-2′-oxo-2′,3′-dihydrospiro[cyclopropane-1,1′-pyrrolo[2,3-c]quinolin]-8′-yl)pyridin-3-yl)-4-(trifluoromethoxy)benzenesulfonamide]
1 to 100 nM	1 to 100 nM	CN(C)CCCOc1ncc(-c2ccc3c(c2)c2c(c[n+]3[O-])N(C)C(=O)C23CC3)cc1NS(=O)(=O)c1ccccc1 [Example 123, 8′-(6-(3-(Dimethylamino)propoxy)-5-(phenylsulfonamido)pyridin-3-yl)-3′-methyl-2′-oxo-2′,3′-dihydrospiro[cyclopropane-1,1′-pyrrolo[2,3-c]quinoline]5′-oxide]
1 to 100 nM	1 to 100 nM	CN1C(=O)C2(CC2)c2c1cnc1cc(F)c(-c3cnc(OCCCN4CCCC4)c(NS(=O)(=O)c4ccccc4)c3)cc21 [Example 124, N-(5-(7′-Fluoro-3′-methyl-2′-oxo-2′,3′-dihydrospiro[cyclopropane-1,1′-pyrrolo[2,3-c]quinolin]-8′-yl)-2-(3-(pyrrolidin-1-yl)propoxy)pyridin-3-yl)benzenesulfonamide]
1 to 100 nM	< 0.5 nM	CN(C)CCCOc1ncc(-c2ccc3ncc4c(c3c2)C2(CC2)C(=O)N4C)cc1NS(=O)(=O)c1cc(Cl)cc(Cl)c1 [Example 125, 3.5-Dichloro-IN-(2-(3-(dimethylamino)propoxy)-5-(3′-methyl-2′-oxo-2′,3′-dihydrospiro[cyclopropane-1,1′-pyrrolo[2,3-c]quinolin]-8′-yl)pyridin-3-yl)benzenesulfonamide]
1 to 100 nM	< 0.5 nM	CN(C)CCCOc1ncc(-c2ccc3ncc4c(c3c2)C2(CC2)C(=O)N4C)cc1NS(=O)(=O)c1ccc(OC(F)F)cc1 [Example 126, 4-(Difluoromethoxy)-N-(2-(3-(dimethylamino)propoxy)-5-(3′-methyl-2′-oxo-2′,3′-dihydrospiro[cyclopropane-1,1′-pyrrolo[2,3-c]quinolin]-8′-yl)pyridin-3-yl)benzenesulfonamide]
1 to 100 nM	1 to 100 nM	CN(C)CCCOc1ncc(-c2ccc3ncc4c(c3c2)C2(CC2)C(=O)N4C)cc1NS(=O)(=O)c1ccc(C(C)(C)C)cc1 [Example 127]
1 to 100 nM	< 0.5 nM	CN(C)CCCOc1ncc(-c2ccc3ncc4c(c3c2)C2(CC2)C(=O)N4C)cc1NS(=O)(=O)c1ccc(Cl)cc1 [Example 128, 4-Chloro-N-(2-(3-(dimethylamino)propoxy)-5-(3′-methyl-2′-oxo-2′,3′-dihydrospiro[cyclopropane-1,1′-pyrrolo[2,3-c]quinolin]-8′-yl)pyridin-3-yl)benzenesulfonamide hydrochloride]
1 to 100 nM	1 to 100 nM	CN(C)CCCOc1ncc(-c2cc3c4c(cnc3cc2F)N(C)C(=O)C42CC2)cc1NS(=O)(=O)c1ccc(Cl)cc1 [Example 129, 4-Chloro-N-(2-(3-(dimethylamino)propoxy)-5-(7′-fluoro-3′-methyl-2′-oxo-2′,3′-dihydrospiro[cyclopropane-1,1′-pyrrolo[2,3-c]quinolin]-8′-yl)pyridin-3-yl) benzenesulfonamide hydrochloride]
1 to 100 nM	1 to 100 nM	CN(C)CCCOc1ncc(-c2ccc3ncc4c(c3c2)C2(CCC2)C(=O)N4C)cc1NS(=O)(=O)c1cncc(Cl)c1 [Example 130, 5-Chloro-N-(2-(3-(dimethylamino)propoxy)-5-(3′-methyl-2′-oxo-2′,3′-dihydrospiro[cyclobulane-1,1′-pyrrolo[2,3-c]quinolin]-8′-yl)pyridin-3-ylpyridine-3-sulfonamide hydrochloride]
1 to 100 nM	1 to 100 nM	CN1C(=O)C2(CCC2)c2c1cnc1ccc(-c3cnc(OCCCN4CCOCC4)c(NS(=O)(=O)c4ccccc4)c3)cc21 [Example 131, N-(5-(3′-Methyl-2′-oxo-2′,3′-dihydrospiro[cyclobulane-1,1′-pyrrolo[2,3-c]quinolin]-8′-yl)-2-(3-morpholinopropoxy)pyridin-3-yl)benzenesulfonamide hydrochloride]
1 to 100 nM	1 to 100 nM	CN1C(=O)C2(CCC2)c2c1cnc1ccc(-c3cnc(OCCCN4CCCCC4)c(NS(=O)(=O)c4ccccc4)c3)cc21 [Example 132, N-(5-(3′-Methyl-2′-oxo-2′,3′-dihydrospiro[cyclobulane-1,1′-pyrrolo[2,3-c]quinolin]-8′-yl)-2-(3-(piperidin-1-yl)propoxy)pyridin-3-yl)benzenesulfonamide hydrochloride]
1 to 100 nM	0.5 to 1 nM	COc1ccc(S(=O)(=O)Nc2cc(-c3ccc4ncc5c(c4c3)C3(CCC3)C(=O)N5C)cnc2OCCCN(C)C)cn1 [Example 133, N-(2-(3-(Dimethylamino)propoxy)-5-(3′-methyl-2′-oxo-2′,3′-dihydrospiro[cyclobulane-l.1′-pyrrolo[2,3-c]quinolin]-8′-yl)pyridin-3-yl)-6-methoxypyridine-3-sulfonamide hydrochloride]
1 to 100 nM	1 to 100 nM	CN(C)CCCOc1ncc(-c2ccc3ncc4c(c3c2)C2(CCC2)C(=O)N4C)cc1NS(=O)(=O)c1ccc(S(F)(F)(F)(F)F)cc1 [Example 134, N-(2-(3-(Dimethylamino)propoxy)-5-(3′-methyl-2′-oxo-2′,3′-dihydrospiro[cyclobulane-1,1′-pyrrolo[2,3-c]quinolin]-8′-yl)pyridin-3-yl)-4-(pentafluoro-16-sulfaneyl) benzenesulfonamide]
1 to 100 nM	1 to 100 nM	CN(C)CCCOc1ncc(-c2ccc3ncc4c(c3c2)C2(CCC2)C(=O)N4C)cc1NS(=O)(=O)N1CCOCC1 [Example 136, N-(2-(3-(Dimethylamino)propoxy)-5-(3′-methyl-2′-oxo-2′,3′-dihydrospiro [cyclobutane-1,1′-pyrrolo[2,3-c]quinolin]-8′-yl)pyridin-3-yl)morpholine-4-sulfonamide hydrochloride]
1 to 100 nM	1 to 100 nM	Cc1ccc(S(=O)(=O)Nc2cc(-c3ccc4ncc5c(c4c3)C3(CCC3)C(=O)N5C)cnc2OCCCN(C)C)cn1 [Example 137, N-(2-(3-(Dimethylamino)propoxy)-5-(3′-methyl-2′-oxo-2′,3′-dihydrospiro[cyclobutane-1,1′-pyrrolo[2,3-c]quinolin]-8′-yl)pyridin-3-yl)-6-methylpyridine-3-sulfonamide hydrochloride]
1 to 100 nM	> 100 nM	CN(C)CCCOc1ncc(-c2ccc3ncc4c(c3c2)C2(CCC2)C(=O)N4C)cc1NS(=O)(=O)c1cncc(C(F)(F)F)c1 [Example 141, N-(2-(3-(Dimethylamino)propoxy)-5-(3′-methyl-2′-oxo-2′,3′-dihydrospiro[cyclobulane-1,1′-pyrrolo[2,3-c]quinolin]-8′-yl)pyridin-3-yl)-5-(trifluoromethyl)pyridine-3-sulfonamide hydrochloride]
1 to 100 nM	< 0.5 nM	Cc1ccc(S(=O)(=O)Nc2cc(-c3ccc4ncc5c(c4c3)C3(CCC3)C(=O)N5C)cnc2OCCCN2CCCCC2)cn1 [Example 142, 6-Methyl-N-(5-(3 methyl-2′-oxo-2′,3′-dihydrospiro[cyclobulane-1,1′-pyrrolo[2,3-c]quinolin]-8′-yl)-2-(3-(piperidin-1-yl)propoxy)pyridin-3-yl)pyridine-3-sulfonamide hydrochloride]
1 to 100 nM	1 to 100 nM	COc1ccc(S(=O)(=O)Nc2cc(-c3ccc4ncc5c(c4c3)C3(CCC3)C(=O)N5C)cnc2OCCCN(C)C)cc1 [Example 144, N-(2-(3-(Dimethylamino)propoxy)-5-(3′-methyl-2′-oxo-2′,3′-dihydrospiro [cyclobutane-1,1′-pyrrolo[2,3-c]quinolin]-8′-yl)pyridin-3-yl)-4-methoxybenzenesulfonamide hydrochloride]
1 to 100 nM	0.5 to 1 nM	Cc1ccc(S(=O)(=O)Nc2cc(-c3ccc4ncc5c(c4c3)C3(CCC3)C(=O)N5C)cnc2OCCCN(C)C)cc1 [Example 145, N-(2-(3-(Dimethylamino)propoxy)-5-(3′-methyl-2′-oxo-2′,3′-dihydrospiro [cyclobulane-1,1′-pyrrolo[2,3-c]quinolin]-8′-yl)pyridin-3-yl)-4-methylbenzenesulfonamide hydrochloride]
1 to 100 nM	1 to 100 nM	CN(C)CCCOc1ncc(-c2ccc3ncc4c(c3c2)C2(CCC2)C(=O)N4C)cc1NS(=O)(=O)c1ccc(C(F)(F)F)nc1 [Example 146, N-(2-(3-(Dimethylamino)propoxy)-5-(3′-methyl-2′-oxo-2′,3′-dihydrospiro [cyclobulane-1,1′-pyrrolo[2,3-c]quinolin]-8′-yl)pyridin-3-yl)-6-(trifluoromethyl)pyridine-3-sulfonamide hydrochloride]
1 to 100 nM	0.5 to 1 nM	CN(C)CCCOc1ncc(-c2ccc3ncc4c(c3c2)C2(CCC2)C(=O)N4C)cc1NS(=O)(=O)c1ccc(C#N)nc1 [Example 147, 6-Cyano-N-(2-(3-(dimethylamino)propoxy)-5-(3′-methyl-2′-oxo-2′,3′-dihydrospiro[cyclobulane-1,1′-pyrrolo[2,3-c]quinolin]-8′-yl)pyridin-3-ylpyridine-3-sulfonamide hydrochloride]
1 to 100 nM	1 to 100 nM	CN(C)CCCOc1ncc(-c2ccc3ncc4c(c3c2)C2(CCC2)C(=O)N4C)cc1NS(=O)(=O)c1ccccn1 [Example 148, N-(2-(3-(Dimethylamino)propoxy)-5-(3′-methyl-2-oxo-2′,3′-dihydrospiro[cyclobulane-1,1′-pyrrolo[2,3-c]quinolin]-8′-yl)pyridin-3-yl)pyridine-2-sulfonamide hydrochloride]
